From paper PMC7956620 (Molecules, 2021)
Positions count from the first letter of the chain named.

What was measured:
Type in all cases: cell-based
[1] = biological target: T1, 5-HT3A receptor F130A+N138A double mutant (Homo sapiens, UniProt P46098, F125A/N133A); assay: two-electrode voltage clamp, F130A+N138A double mutant receptor in Xenopus oocytes; conditions: 300 µM chanoclavine with 5-HT
T1 construct: host or cells: Xenopus laevis oocytes injected with in vitro transcribed mRNA
T1 sequence (P46098 24-478 F125A/N133A): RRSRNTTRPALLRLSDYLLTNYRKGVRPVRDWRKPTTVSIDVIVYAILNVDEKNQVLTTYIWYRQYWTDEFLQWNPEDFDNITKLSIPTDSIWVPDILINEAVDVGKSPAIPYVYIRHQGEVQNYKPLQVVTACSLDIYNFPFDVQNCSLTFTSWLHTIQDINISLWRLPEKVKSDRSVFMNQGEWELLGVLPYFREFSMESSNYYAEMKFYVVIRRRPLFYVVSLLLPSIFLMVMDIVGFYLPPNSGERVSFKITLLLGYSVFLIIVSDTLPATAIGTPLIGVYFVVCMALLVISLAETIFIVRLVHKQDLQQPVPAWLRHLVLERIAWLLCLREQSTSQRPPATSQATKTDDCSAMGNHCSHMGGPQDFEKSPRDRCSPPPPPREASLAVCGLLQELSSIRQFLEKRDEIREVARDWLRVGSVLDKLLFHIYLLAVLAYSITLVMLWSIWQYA
Procedure: (§1) The site-directed mutation of one or two amino acids was performed using sense and antisense primers and Pfu polymerase (QuickChange Site-Directed Mutagenesis Kit; Agilent, Santa Clara, CA, USA) and amplified by polymerase chain reaction (PCR) to increase the target domain. After removing the existing methylated cDNA using Dpn Ⅰ, the PCR products were transformed into Escherichia coli strain DH5α. The cDNA of the 5-HT3A receptor was linearized by Xho Ⅰ at the end of the multi-cloning site, followed by transcription using T7 polymerase and a transcription kit (mMESSAGE mMACHINE T7 Transcription Kit; Thermo Fisher Scientific, Waltham, MA, USA). […]
(§2) To isolate oocytes, female Xenopus laevis were put into a container filled with ice and left for about one hour. […] When the Xenopus oocytes were ready for injection, 50 ng of mRNA was injected with a nanoliter injector (Drummond Scientific, Vernon Hills, IL, USA). […]
(§3) The oocytes in which mRNA was expressed during the incubation period allowed for the estimation of channel or receptor properties for observing drug and ligand potential interactions using a two-electrode voltage clamp (OC-725C; Warner Instruments, Hamden, CT, USA) and Digidata (1322A; Molecular Devices, Sunnyvale, CA, USA). […] The voltage and current electrodes were filled with 3 M KCl (0.3–0.7 MΩ) and analyzed at a −80 mV holding potential. […]

[2] = biological target: T2, 5-HT3A receptor R196A mutant (Homo sapiens, UniProt P46098, R191A); assay: two-electrode voltage clamp, R196A mutant receptor in Xenopus oocytes; conditions: 100 µM chanoclavine, read-out: Inhibition Percentage (%)
T2 construct: host or cells: Xenopus laevis oocytes injected with in vitro transcribed mRNA
T2 sequence (P46098 24-478 R191A): T1 sequence (P46098 24-478 F125A/N133A) with A102F, A110N, R168A
Procedure: as §1, §2, §3

[3] = biological target: T3, 5-HT3A receptor Y153A mutant (Homo sapiens, UniProt P46098, Y148A); assay: two-electrode voltage clamp, Y153A mutant receptor in Xenopus oocytes; conditions: 100 µM chanoclavine, read-out: Inhibition Percentage (%)
T3 construct: host or cells: Xenopus laevis oocytes injected with in vitro transcribed mRNA
T3 sequence (P46098 24-478 Y148A): T1 sequence (P46098 24-478 F125A/N133A) with A102F, A110N, Y125A
Procedure: as §1, §2, §3

With CN[C@@H]1Cc2c[nH]c3cccc(c23)[C@H]1/C=C(\C)CO [chanoclavine] the “effect on inward current” value [1] was “not significantly decreased”, the inhibition at 100 µM [2] was 82.1 ± 2.5% and the inhibition at 100 µM [3] was 56.9 ± 3.6%.
